Laboratory results as given in the supplement of paper PMC10307832.

Tests used:
Experiment in all cases: relative viability (nuclei count vs DMSO), 5 days (fraction); higher = more cells survive
DM3189 + Trametinib = compound: C1CN(CCN1)C2=CC=C(C=C2)C3=CN4C(=C(C=N4)C5=CC=NC6=CC=CC=C56)N=C3 [DM3189] + CC(=O)Nc1cccc(-n2c(=O)n(C3CC3)c(=O)c3c(Nc4ccc(I)cc4F)n(C)c(=O)c(C)c32)c1 [Trametinib] (partner 0.02 µM)
Method in brief: (§1)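 After 5 days of treatment, lung cancer cells in 1536-well plates were fixed and stained in a single step (final 0.05% Triton X-100, 1% formaldehyde, 1 ug/ml Hoechst) and their nuclei counted on 4× images. Treatment had been applied by pin tool the day after seeding as one drug alone or as a fixed anchor-drug dose with five library-drug doses (not always all listed) in √10 steps. Relative viability is the nuclei count of treated wells divided by that of vehicle wells, and values are medians of duplicate plates.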

DM3189 + Crizotinib = compound: C1CN(CCN1)C2=CC=C(C=C2)C3=CN4C(=C(C=N4)C5=CC=NC6=CC=CC=C56)N=C3 [DM3189] + C[C@@H](Oc1cc(-c2cnn(C3CCNCC3)c2)cnc1N)c1c(Cl)ccc(F)c1Cl [Crizotinib] (partner 1 µM)
Method in brief: as §1

DM3189 + Linsitinib = compound: C1CN(CCN1)C2=CC=C(C=C2)C3=CN4C(=C(C=N4)C5=CC=NC6=CC=CC=C56)N=C3 [DM3189] + C[C@]1(O)C[C@@H](c2nc(-c3ccc4ccc(-c5ccccc5)nc4c3)c3c(N)nccn32)C1 [Linsitinib] (partner 1 µM)
Method in brief: as §1

DM3189 + Pemetrexed = compound: C1CN(CCN1)C2=CC=C(C=C2)C3=CN4C(=C(C=N4)C5=CC=NC6=CC=CC=C56)N=C3 [DM3189] + Nc1nc2[nH]cc(CCc3ccc(C(=O)N[C@@H](CCC(=O)O)C(=O)O)cc3)c2c(=O)[nH]1 [Pemetrexed] (partner 0.2 µM)
Method in brief: as §1

DM3189 + Olaparib = compound: C1CN(CCN1)C2=CC=C(C=C2)C3=CN4C(=C(C=N4)C5=CC=NC6=CC=CC=C56)N=C3 [DM3189] + O=C(c1cc(Cc2n[nH]c(=O)c3ccccc23)ccc1F)N1CCN(C(=O)C2CC2)CC1 [Olaparib] (partner 8 µM)
Method in brief: as §1

Cell Line	relative viability (DM3189 + Trametinib; first compound 0.08 µM)	relative viability (DM3189 + Trametinib; first compound 0.253 µM)	relative viability (DM3189 + Trametinib; first compound 0.8 µM)	relative viability (DM3189 + Trametinib; first compound 2.53 µM)	relative viability (DM3189 + Crizotinib; first compound 0.08 µM)	relative viability (DM3189 + Crizotinib; first compound 0.253 µM)	relative viability (DM3189 + Crizotinib; first compound 0.8 µM)	relative viability (DM3189 + Crizotinib; first compound 2.53 µM)	relative viability (DM3189 + Linsitinib; first compound 0.08 µM)	relative viability (DM3189 + Linsitinib; first compound 0.253 µM)	relative viability (DM3189 + Linsitinib; first compound 0.8 µM)	relative viability (DM3189 + Linsitinib; first compound 2.53 µM)	relative viability (DM3189 + Pemetrexed; first compound 0.08 µM)	relative viability (DM3189 + Pemetrexed; first compound 0.253 µM)	relative viability (DM3189 + Pemetrexed; first compound 0.8 µM)	relative viability (DM3189 + Pemetrexed; first compound 2.53 µM)	relative viability (DM3189 + Olaparib; first compound 0.08 µM)	relative viability (DM3189 + Olaparib; first compound 0.253 µM)	relative viability (DM3189 + Olaparib; first compound 0.8 µM)	relative viability (DM3189 + Olaparib; first compound 2.53 µM)
NCI-H1734	0.651	0.623	0.652	0.685	0.585	0.695	0.676	0.657	1.01	0.981	0.814	0.968	0.438	0.4	0.353	0.352	0.61	0.588	0.563	0.63
NCI-H1755	0.786	0.801	0.725	0.836	0.768	0.837	0.736	0.818	1.02	0.911	0.881	0.934	0.418	0.555	0.502	0.395	0.821	0.831	0.717	0.922
NCI-H1792	0.538	0.482	0.438	0.62	0.861	0.992	0.887	0.441	0.409	0.532	0.449	0.315	0.986	0.98	0.645	0.616	0.647	0.354	0.404	0.38
NCI-H1915	0.325	0.292	0.305	0.307	0.879	0.79	0.808	0.783	1.12	1.05	0.928	1.11	0.468	0.471	0.454	0.448	0.264	0.253	0.222	0.231
NCI-H1944	0.463	0.422	0.42	0.413	1.25	1		1.22	1.26	1.19		1.21	0.661	0.603	0.603	0.675	0.385	0.405	0.35	0.378
NCI-H1975	0.37	0.367	0.316	0.299	1.1	0.928	0.819	0.647	1.18	0.955	0.929	0.727	0.27	0.281	0.266	0.278	0.952	0.777	0.646	0.639
NCI-H1993	0.504	0.501	0.641	0.486		0.846	0.744	0.991		0.616	0.641	0.706	0.622	0.626	0.545	0.541	1.05	1.13	1.02	1.13
NCI-H2009	0.276	0.268	0.263	0.23	1.07	1.03	0.933	0.922	1.24	1.21	1.11	1.29	1.07	0.988	0.985	1	0.894	0.645	0.638	0.689
NCI-H2023	0.469	0.534	0.532	0.374	0.68	0.729	0.631	0.502	0.683	0.694	0.496	0.667	0.235	0.231	0.236	0.178	0.486	0.432	0.515	0.333
NCI-H2085	0.521	0.613	0.598	0.668	0.941	0.807	0.872	0.752	0.932	0.858	0.973	0.946	0.885	0.886	0.941	0.869	0.735	0.804	0.804	0.883
NCI-H2087	0.24	0.17	0.228	0.219	0.894	0.695	0.788	0.79	1.06	0.909	1.11	0.969	0.724	0.659	0.67	0.573	0.511	0.563	0.505	0.316
NCI-H2126	0.609	0.534	0.509	0.524	1.07	0.989	0.98	1.06	0.708	0.799	0.779	0.799	0.717	0.624	0.565	0.652	0.99	0.89	0.896	0.991
NCI-H2228	0.476	0.494	0.581	0.236	0.695	0.363	0.385	0.14	0.68	0.763	0.572	0.66	0.365	0.315	0.361	0.226	0.88	0.669	0.492	0.51
NCI-H2347	0.28	0.262	0.276	0.31	0.692	0.761	0.67	0.675	0.98	1	0.907	0.97	0.473	0.51	0.432	0.518	0.544	0.53	0.522	0.55
NCI-H2405	0.669	0.615	0.614	0.579	0.867	0.855	0.775	0.855	0.909	0.922	0.792	0.878	1.1	0.917	0.997	1.06	0.919	0.858	0.781	0.793
NCI-H3122	0.19	0.205	0.181	0.217	0.237	0.204	0.261	0.259	0.939	0.907	0.876	0.933	0.203	0.197	0.184	0.159	0.698	0.606	0.545	0.73
